Where two headings read alike, the source gives them in different places. Ends that are not written are not given here.

For assay [1], the system named is Fc region (Jackson ImmunoResearch Laboratories, Inc.) labeled with horseradish peroxidase (HRP). In words: ELISA of recombinant phages displaying polypeptides (Example 1, 6). Format: binding, human. Particulars: recombinant T7 phage displaying the polypeptide, absorbance at 415 nm. The method, then: 6) In this section, it will be stated as an example that the binding activity of recombinant phages transformed by nucleic acids encoding the amino acid sequences represented by SEQ ID NOs: 2 to 9 and 11 to 19 was measured by Enzyme Linked Immuno-Sorbent Assay (ELISA).
DNA molecules encoding the amino acid sequences of SEQ ID NOs: 2 to 9 and 11 to 19 were amplified by a polymerase chain reaction (PCR). PCR was carried out using KOD DNA polymerase (TOYOBO) under reaction conditions according to the accompanying manual. The amplified DNA molecules were each digested with restriction enzymes EcoRI and HindIII and ligated to 3′ terminal of g10 gene on T7 phage genomic DNA. Ligation to T7 phage genomic DNA was performed by use of a sample attached to T7Select10-3 Cloning Kit (Novagen) under the reaction conditions and in accordance with the procedure described in the accompanying T7Select (registered trade mark) System Manual. Using T7 phage genomic DNA ligated, T7 phage was packaged in a test tube by T7Select Packaging Kit (Novagen) under the reaction conditions in accordance with T7Select (registered trade mark) System Manual (Novagen). Subsequently, phage plaques were formed in accordance with T7Select (registered trade mark) System Manual (Novagen). From each of the plaques, a recombinant phage displaying the polypeptide was isolated. To MICROTEST (registered trade mark) 96 (BECTON, DICKINSON AND COMPANY), a culture solution (0.2 mL) of Escherichia coli BL5403 strain cultured in LB medium until O.D.600 reached 1.0 was poured to infect with the Escherichia coli cells each of the recombinant phages isolated from plaques and allowed to stand still at 37° C. for 12 hours to proliferate phages. The culture solution (10 μL) containing these phages was diluted in 90 μL of TBS buffer (50 mM Tris-HCl, 150 mM NaCl, pH 7.4) to prepare measurement samples.
The measurement samples were poured to MEDISORP 96 well microplate (Nunc) and allowed to stand still for one hour to allow the phage to physically adsorb to the plate. After the supernatant was removed, SuperBlock (registered trade mark) T20 (TBS) Blocking Buffer (Thermo […]) (150 μL) was poured to the plate and allowed to stand still for one hour to block the surface of the plate. The plate was washed three times with TBS-T buffer (50 mM Tris-HCl, 150 mM NaCl, 0.1% Tween 20 (registered trade mark), pH 7.4). To the plate, TBS-T buffer (100 μL) containing an Fc region (Jackson ImmunoResearch Laboratories, Inc.) (0.2 μg/mL) labeled with horseradish peroxidase (HRP) was added and allowed to stand still for one hour. After the plate was washed three times with TBS-T buffer, ABTS One Component HRP Microwell Substrate (BioFX) (100 μL) was poured to the plate. Binding activity was detected through a color reaction. The absorbance at 415 nm (O.D.415) was measured by a microplate absorbance reader Sunrise R (TECAN GROUP LTD.). TBS-T buffer containing no phages was used as a negative control in a control experiment.
ELISA results of the recombinant phages displaying polypeptides containing amino acid sequences represented by SEQ ID NOs: 2 to 9 and the recombinant phages displaying polypeptides containing amino acid sequences represented by SEQ ID NOs: 11 to 19 are shown in Table 2A and Table 2B, respectively.
Background: ELISA stands for enzyme-linked immunosorbent assay.

Assay [2] deals with human IgG. Particulars: competitive reaction with protein A; read-out: competitive inhibitory capacity Ki; cited from earlier work.
In assay [3] the target is IgG. To be noted: Non Patent Literature 4; read-out: equilibrium dissociation constant, KD; cited from earlier work.
Assay [4] addresses T1, Fc region prepared by digesting human monoclonal antibody IgG with papain (Homo sapiens, UniProt P01857).
T1 construct: The Fc region to be immobilized to a sensor chip was prepared, by digesting human monoclonal antibody IgG with papain; made in house; host or cells: papain digest of human monoclonal IgG (Pierce Fab Preparation Kit), then MabSelect SuRe, HiTrap DEAE and Superdex 200
The assay can be described thus: Surface plasmon resonance, polypeptides on immobilized Fc region prepared from human monoclonal IgG (Example 2, 3) and 4); Example 8). The class given is binding. The method, then: The polypeptides, which were previously synthesized in an organic chemical manner were purchased from bio[…], were diluted with HBS-T buffer and controlled so as to have a concentration of 500, 400, 300, 200 or 100 nM. The surface plasmon resonance test was performed by using Biacore T100 (GE Healthcare). The Fc region to be immobilized to a sensor chip was prepared, by digesting human monoclonal antibody IgG with papain, in accordance with the instruction attached to Pierce (registered trade mark) Fab Preparation Kit (Thermo […]), followed by purifying by affinity chromatography using MabSelect SuRe (GE Healthcare), HiTrap DEAE anion exchange chromatography (GE Healthcare) and gel filtration chromatography using Superdex 200 (GE Healthcare). The Fc region prepared was immobilized to Sensor Chip CM5 (GE Healthcare) by the amine coupling method. The binding activity of the synthesized peptides prepared was measured and equilibrium dissociation constants were determined. Data were processed by use of Biacore TOO Evaluation Software (GE Healthcare).
4) In this section, it will be stated as an example that the binding activity of a polypeptide consisting of an amino acid sequence (referred to as p17) of SEQ ID NO: 57 was measured by surface plasmon resonance. The polypeptide was prepared by cleaving thioredoxin fusion protein p17_trx consisting of the amino acid sequence of SEQ ID NO: 86 with a protease and removing a thioredoxin portion. Since the thioredoxin fusion protein, which is produced by expression vector pET-48b (Novagen), has an HRV 3C protease cleavage site in the amino acid sequence, the desired polypeptide ligated to the C terminal can be obtained by use of protease.
DNA (SEQ ID NO: 124) encoding the thioredoxin fusion protein (SEQ ID NO: 86) containing p17 was synthesized by PCR and introduced to an expression vector, pET-48b (Novagen). Using the expression vector and in accordance with the same procedure as in Example, 1, 5), the thioredoxin fusion protein was prepared. The thioredoxin fusion protein (40 mg) was digested with 100 units of HRV 3C Protease (Novagen) at 4° C. under the reaction conditions according to the accompanying manual. The digested product was diluted in a 6 M guanidine hydrochloride solution and purified by gel filtration chromatography using Superdex Peptide 10/300 GL (GE Healthcare). Subsequently reverse phase chromatography using μRPC C2/C18 ST 4.6/100 (GE Healthcare) was performed to prepare a polypeptide p17 consisting of an amino acid sequence of SEQ ID NO: 57.
Subsequently, the binding activity of p17 prepared was measured by surface plasmon resonance by use of Biacore T100 (GE Healthcare).
Subsequently, the binding activity of five types of polypeptides prepared above was analyzed by surface plasmon resonance. Biacore T100 (GE Healthcare) was used in measurement. […]
(In general: SPR reads the build-up and loss of mass on a sensor chip optically.)

The target of assay [5] is human Fc region manufactured by Jackson ImmunoResearch Laboratories, Inc. The assay can be described thus: Surface plasmon resonance, synthetic polypeptides on immobilized human Fc region (Example 1, 4). Format: binding. Particulars: synthetic polypeptide, 25° C., HBS-T buffer pH 7.4. The procedure: The polypeptides previously synthesized in an organic chemical manner were purchased from bio[…]. Biacore T100 (GE Healthcare) was used as a surface plasmon resonance measurement apparatus. The human Fc region manufactured by Jackson ImmunoResearch Laboratories, Inc. was immobilized to Sensor Chip CM5 (GE Healthcare) in accordance with an amine coupling method using an Amine Coupling Kit (GE Healthcare). […] The binding activity of these polypeptides was measured at a reaction temperature of 25° C. The measurement data were processed by Biacore TOO Evaluation Software (GE Healthcare).

Assay [6] addresses rabbit IgG. To be noted: Non Patent Literature 5; cited from earlier work.
For assay [7], the target named is IgG. Particulars: domains by themselves; Non Patent Literature 28 and 29; cited from earlier work.
[8] abbreviates: synthetic polypeptide, read-out: equilibrium dissociation constants KD.
Setting [9] is: variant polypeptide with alanine substitution, read-out: Equilibrium dissociation constant of p17 variant KD.
The mark [10] stands for this setting: read-out: equilibrium dissociation constant KD.

Sequence of rabbit IgG (P01870 101-323 limits assumed): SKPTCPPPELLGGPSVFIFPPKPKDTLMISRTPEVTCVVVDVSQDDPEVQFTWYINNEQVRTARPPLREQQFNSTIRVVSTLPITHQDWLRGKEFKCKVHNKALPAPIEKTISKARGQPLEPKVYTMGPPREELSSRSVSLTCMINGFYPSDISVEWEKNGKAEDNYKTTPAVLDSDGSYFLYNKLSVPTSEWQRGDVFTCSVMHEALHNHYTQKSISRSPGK

As to “3 (YDPGTGTWRSYLRFGGG; IgG binding peptide, H3) [compound 3]”, in assay [1] (control 0.08), the “O.D. 415” value was determined as 0.278. Take “4 (YDPYTGTWRSSIWVLSG; IgG binding peptide, D5) [compound 4]”: the “O.D. 415” value in assay [1] (control 0.08) was determined as 0.165. The same measure, in the same setting: the figure for “5 (YDPGTGTWRSWLSFNVG; IgG binding peptide, E7) [compound 5]” is 0.155. The same measure, in the same setting: the figure for “6 (YDPWTGTWRSFIWGGGG; IgG binding peptide, sC12) [compound 6]” is 0.149; for “7 (YDPRTGTWLLYASRLLG; IgG binding peptide, G3) [compound 7]” it is 0.214; for “8 (YDPVTGTWTSSIASWMG; IgG binding peptide, G11) [compound 8]” it is 0.223.

For the substance “9 (YDPRTGTWRRSSLSYSG; IgG binding peptide, sA7) [compound 9]”, the “O.D. 415” value in assay [1] (control 0.08) is 0.193. With “12 (AGSRRAHGYDPRTGTWRSSIAYGGG; IgG binding peptide, 2A4) [compound 12]”, the “O.D. 415” value in assay [1] (control 0.101) amounted to 0.267. The same measure, in the same setting: the figure for “14 (SWRRRGSSYDPRTGTWRSSIAYGGG; IgG binding peptide, 2H1) [compound 14]” is 0.282; for “15 (TGRGRSARYDPRTGTWRSSIAYGGG; IgG binding peptide, 2F2) [compound 15]” it is 0.396; for “16 (HWVNGRSGYDPRTGTWRSSIAYGGG; IgG binding peptide, 2F4) [compound 16]” it is 0.373. Still for that read-out and setting: the figure for “18 (GSVVRWRGYDPRTGTWRSSIAYGGG; IgG binding peptide, 2F7) [compound 18]” is 0.36; for “19 (GAVYRRSFYDPRTGTWRSSIAYRGG; IgG binding peptide, 2F9) [compound 19]” it is 0.353. With “Asp Cys Ala Trp His Leu Gly Glu Leu Val Trp Cys Thr [Fc-III]”, the Ki (usually the equilibrium dissociation constant of an inhibitor or competing ligand from its target) in assay [2] is 0.1 µM. The Kd – broadly, the free concentration of one partner at which half of the binding sites on the other are occupied at equilibrium, for simple one-to-one binding – in assay [3] was 0.185 µM. Regarding “DAAWHLGELVWATYYDPETGTWAPDWRLMQGQ [SEQ ID NO: 25]”, the equilibrium dissociation constant (Kd) in assay [4] (setting [8]) was 0.51 µM. Still for that read-out and setting: the figure for “DAAWHLGELVWATYYDPETGTWLPDWQTMAQK [SEQ ID NO: 26]” is 0.1 µM. For the substance “DAAWHLGELVWATYYDPETGTWQPDWLYMTTR [SEQ ID NO: 24]”, the Kd in assay [4] (synthetic polypeptide, read-out: KD) was determined as 0.12 µM. Consider “GPGISAFSPGRGVYDPETGTWYDAAWHLGELVWATYYDPETGTWEADWQRMLGQ [SEQ ID NO: 174]”, for which the equilibrium dissociation constant (Kd) in assay [4] (setting [9]) is 0.0056 µM.

For “GPGISAFSPGRGVYDPETGTWYDAAWHLGELVWATYYDPETGTWEPAWQRMLGQ [SEQ ID NO: 175]”, in assay [4] (setting [9]), the Kd came to 0.045 µM. The same measure, in the same setting: the same measure for “GPGISAFSPGRGVYDPETGTWYDAAWHLGELVWATYYDPETGTWEPDAQRMLGQ [SEQ ID NO: 176]”: 0.2 µM; for “GPGISAFSPGRGVYDPETGTWYDAAWHLGELVWATYYDPETGTWEPDWQAMLGQ [SEQ ID NO: 177]”: 0.0078 µM. Take “GPGISAFSPGRGVYDPETGTWYDAAWHLGELVWATYYDPETGTWEPDWQRMLGQ [SEQ ID NO: 57]”: the Kd worked out at 0.0016 µM in assay [4] (polypeptide obtained by protease cleavage of p17_trx, read-out: KD) and 0.0016 µM in assay [4] (polypeptide obtained by protease cleavage of p17_trx, read-out: equilibrium dissociation constant KD). For “GVVRQWSGGGGSGGGGRSSIAYGGG [SEQ ID NO: 21]”, the Kd in assay [5] (setting [10]) was found to be 23 µM. For RSSIAYGGG [SEQ ID NO: 22], the Kd in assay [5] (read-out: KD) and in assay [5] (setting [10]) was 110 µM in each case. Regarding “peptide from a synthesized branched tetrapolypeptide library (Arg Thr Xaa)4 Lys2 Lys Gly, competitively works with protein A (Fassina et al.) [TG19318]”, the dissociation constant Kd in assay [6] is 0.3 µM. Turning to “protein A: IgG-binding protein derived from Staphylococcus, conventionally used”, the Kd in assay [7] was around 0.01 µM. As for “protein G: bacteria-derived natural IgG-binding protein, conventionally used”, in assay [7], the Kd was around 0.49 µM.
